According to patent US10851367B2, “Tissue-specific genome engineering using CRISPR-Cas9” (Pfizer Inc., priority 2015, dated 2020):

Biological target: T1, ASGPR (Homo sapiens, UniProt P07306)
T1 sequence (P07306 148-291 limits assumed): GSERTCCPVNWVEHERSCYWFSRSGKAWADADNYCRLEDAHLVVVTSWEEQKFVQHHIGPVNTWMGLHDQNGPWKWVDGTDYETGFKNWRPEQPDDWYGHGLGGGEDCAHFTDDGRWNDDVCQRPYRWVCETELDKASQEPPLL
Test: SPR binding measurements for ASGPr ligands (Biacore 3000)
Details: biotinylated ASGPR immobilized, 25° C., each run separately reported or n and std dev noted
Description: SPR Binding Measurements for ASGPr Ligands:
All SPR measurements with compounds were performed using a Biacore 3000 (GE Healthcare) at 25° C. Biotinylated ASGPR was immobilized typically at 2000-3000 resonance units (Ru) using either SA sensor chips (GE Healthcare) or custom sensor chips with Neutravidin (Pierce Biochemical) immobilized by standard amine coupling to CM5 sensor chips (GE Healthcare). The running buffer was HBS (10 mM HEPES, 150 mM NaCl), 20 mM CaCl2, 0.01% p20, 3% DMSO or 50 mM tris, 150 mM NaCl, 50 mM CaCl2, 0.01% p20, 3% DMSO pH 7.5. Compounds were diluted into running buffer at a concentration of 900 uM and serially diluted 3 fold to 3.7 uM. Compound solutions were injected at 50 ul/min for 1 min followed by a 1 min dissociation in duplicate for each concentration. For the multimeric conjugates (dimers, trimers), the conjugates were diluted in running buffer to concentrations of 100 nM or 10 nM and serially diluted. Conjugates were injected for 2 min and off rates were detected for 300 or 600 sec. After completion of off phase data the compounds were displaced using an injection of 900 uM GalNAc returning the receptor surface to the free state. […] KDs were determined by fitting the steady state binding responses for the compounds and single conjugated molecules in Scrubber2. […]

Question: For `CN(C(=O)OC(C)(C)C)[C@H]1[C@H]2OC[C@](CO)(O2)[C@H](O)[C@@H]1O` [Compound 31, tert-butyl [(1S,2R,3R,4R,5S)-2,3-dihydroxy-1-(hydroxymethyl)-6,8-dioxabicyclo[3.2.1]oct-4-yl]methylcarbamate], which Kd is on record?
Answer: 12.3 µM
